This is an account of results in paper doi:10.1101/2020.05.06.079947v2 (biorxiv, 2020).

This test deals with PDEδ (Homo sapiens, UniProt O43924). The experiment in a line: SPR. Type of test: binding.

Molecules are shown by their SMILES.

Sequence of PDEδ (O43924 whole entry): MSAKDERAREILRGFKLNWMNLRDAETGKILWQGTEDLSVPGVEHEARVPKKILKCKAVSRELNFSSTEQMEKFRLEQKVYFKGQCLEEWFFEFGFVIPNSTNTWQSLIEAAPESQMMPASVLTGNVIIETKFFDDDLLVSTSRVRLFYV

For orientation: Kd means the concentration at which binding is half-saturated. A high value points to weaker binding. In turn, `O=C(COc1cccc2c1C(=O)N(C1CCC(=O)NC1=O)C2=O)NCCCOCCOCCOCCCNC(=O)c1cc(Oc2ccc(NC(=O)Nc3ccc(Cl)c(C(F)(F)F)c3)cc2)ccn1` (stereo not shown) [PROTAC T-S, 4-(4-(3-(4-chloro-3-(trifluoromethyl)phenyl)ureido)phenoxy)-N-(1-((2-(2,6-dioxopiperidin-3-yl)-1,3-dioxoisoindolin-4-l)oxy)-2-oxo-7,10,13-trioxa-3-azahexadecan-16-yl)picolinamide] showed a Kd of 2260 nM.
